Assays:
[1] = tested on: phosphorylation of Akt; test: RTK-driven (EGF) or GPCR-driven (LPA) short-term phosphorylation of Akt; type: cell-based, human; conditions: data not shown
Source text: (§1) In pancreatic cancer, PI3K signalling is associated with a poor prognosis. […] However, this was not always coupled to a significant increase in the phosphorylation levels of canonical targets, pPRAS40 or pS6K, in all patients (data not shown), emphasizing the importance of other signalling targets downstream PI3Ks. Long-term inhibition of a core signal node is believed to induce an adaptive modification of the entire signal network. We tested if long-term inhibition of each PI3K isoforms induces a differential change in pancreatic cancer cell adaptation. To answer this question, we devise a strategy to globally identify this adaptive response focusing on phospho-site regulated signalling pathways (data not shown). […] Serum, which consist of a combination of RTK and GPCR stimuli mimicking physiopathological signalling, induces after 10 min a significant activation of class I PI3Ks as assessed by the phosphorylation of Akt and known downstream effectors PRAS40, S6K, S6 (data not shown). […] We thus chose these stimulation conditions to identify differential phosphoproteome across time in response to three PI3K iso form-selective drugs after SILAC metabolic labelling and enrichment in trypsine-based phosphopeptides by TiO2 beads allowing a robust S/T/Y phosphorylation quantification of thousands of proteins.

[2] = tested on: phosphorylation of Akt; test: Serum (FBS)-stimulated phosphorylation of Akt and downstream effectors in Capan-1 cells; type: cell-based, human; conditions: Capan-1, after 10 min stimulation with serum
Description: Light amino acid-labelled and heavy amino acid-labelled Capan-1 cells (respectively called thereafter “light” and “heavy” cells) were washed twice with phosphate buffer saline (PBS; SIGMA; D8537), trypsined (GE Healthcare; L11-002) and plated at a concentration of 2.5.10^6 cells in a 14.4 cm-diameter dish (Dutscher, 055063). After 48 h, cells were serum-starved during 16 h, over-night. Light and heavy cells were pre-treated respectively with inhibitors or their accordingly diluted vehicule (DMSO) (for drug description and used concentration) during 1 h, then stimulated or not for 10 min or 24 h with 2% dialysed FBS. After 10 min and 24 h of FBS stimulation, heavy cells and light cells were maintained on ice, washed three times with cold PBS and lysed.
as §1

[3] = tested on: metastatic pancreatic cancer; conditions: cited from earlier work
[4] = monotherapy, gemcitabine-resistant metastatic pancreatic cancer patient

For `Cc1nc(NC(=O)N2CCC[C@H]2C(N)=O)sc1-c1csc(C(C)(C)C)n1` [A66], the “RTK-driven (EGF) short-term phosphorylation of Akt” value ([1]; EGF stimulation) was “inhibited” and the “pS473 and pT308Akt levels” value [2] was “significantly inhibited”.
In the case of `O=C1NC(=O)/C(=C/c2ccc(-c3ccc(F)cc3O)o2)S1` [AS-252424], the “GPCR-driven (LPA) short-term phosphorylation of Akt” value ([1]; LPA stimulation) is reported as “inhibited” and the “pS473 and pT308Akt levels” value [2] is reported as “significantly inhibited”.
In the case of `CO[C@H]1C[C@@H]2CC[C@@H](C)[C@@](O)(O2)C(=O)C(=O)N2CCCC[C@H]2C(=O)O[C@H]([C@H](C)C[C@@H]2CC[C@@H](OCCO)[C@H](OC)C2)CC(=O)[C@H](C)/C=C(\C)[C@@H](O)[C@@H](OC)C(=O)[C@H](C)C[C@H](C)/C=C/C=C/C=C/1C` [RAD001], the clinical action [3, 4] is given as “only a minimal clinical action” and the tolerability [3, 4] is given as “well tolerated”.
In the case of `Nc1ccn([C@@H]2O[C@H](CO)[C@@H](O)C2(F)F)c(=O)n1` [gemcitabine], the patient survival ([3]; standard of line chemotherapy, pancreatic cancer patients) is given as “increases their survival of only a few weeks”.
In the case of `Cc1cc(C(C)Nc2ccccc2)c2nc(N3CCOCC3)cc(=O)n2c1` (centres unmarked) [TGX-221], the “pS473 and pT308Akt levels” value [2] is reported as “significantly inhibited”.

Source: patent US12000833B2, “Marker for predicting the sensitivity to PI3K inhibitors” (INSERM (INSTITUT NATIONAL DE LA SANTE ET DE LA RECHERCHE …, priority 2017, dated 2024)
